The values below come from patent US10005773B2, “1-(4-pyrimidinyl)-1H-pyrrolo[3,2-c]pyridine derivatives as NIK inhibitors” (Janssen Pharmaceutica NV, priority 2013, dated 2018).

One experiment has as its system LP-1 cells. Nature of the experiment: Biological Assay C: antiproliferative activity on LP-1 cells (CellTiter-Glo). The class given is cell-based. The following applies: Homo sapiens, 72 hr treatment. The essentials: (§1)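 Luminescent ATP signal (CellTiter-Glo) measures growth of myeloma cells following a 72 h compound treatment. Values for the time-zero blank are subtracted, and each mean of duplicate wells is given as percentage of the no-drug control.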
Background: Cellular ATP, detected with luciferase, serves as a proxy for viable cell number.

Experiment [1] deals with T1, Recombinant Human NF-kappaB-Inducing Kinase (NIK/MAP3K14) (Homo sapiens, UniProt Q99558). In words: Biological Assay A2: inhibition of auto-phosphorylation of recombinant human NIK/MAP3K14 (AlphaScreen). The settings on record: 25 microM ATP, 0.2 nM NIK/MAP3K14, 1 h at 25° C., averaged over all batches, read-out: Alpha-Screen IC50. Type of experiment: biochemical. Background: Alpha assays give light when donor and acceptor beads are brought close together.

In another experiment the test system is JJN-3 cells. In words: Biological Assay C: antiproliferative activity on JJN-3 cells (CellTiter-Glo). The settings on record: Homo sapiens, 72 hr treatment. The class given is cell-based. The essentials:
as §1

Experiment [2] has as its target T1, Recombinant Human NF-kappaB-Inducing Kinase (NIK/MAP3K14). In words: Biological Assay A: inhibition of recombinant human NIK/MAP3K14 activity (MSD, MBP substrate). The settings on record: 25 μM ATP, 10 nM NIK/MAP3K14, 1 h at 25° C.; averaged over all batches; read-out: Biochemical (MSD MBP) IC50. The essentials:
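Recombinant human NIK (10 nM) with 25 μM ATP and compound (1% DMSO final) for 1 h at 25° C in pH 7.5 Tris buffer with MgCl2, on MBP-coated plates. Phospho-MBP detected by anti-phospho-MBP and Sulfotag antibody via electrochemiluminescence; blank-subtracted, IC50 from sigmoidal fit.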

Experiment [3] has as its system P-IKKα levels in L363 cells. In words: Biological Assay B: effect of compounds on P-IKKα levels in L363 cells. The class given is cell-based. The following applies: Homo sapiens, L-363, BAFF stimulated, 2 hr treatment, averaged over all batches, read-out: IKKα Cellular IC50. The essentials:
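L363 cells pre-stimulated 24 h with recombinant human BAFF, then treated 2 h with compound (8-point 1:3 dilutions, 1% DMSO final); lysates assayed for P-IKKα by sandwich immunoassay. Blank (MG132, BAFF, 10 μM ADS125117) subtracted; IC50 from sigmoidal fit of % inhibition versus log concentration.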

Another experiment has as its system L-363 cells. In words: Biological Assay C: antiproliferative activity on L-363 cells (CellTiter-Glo). Type of experiment: cell-based. The settings on record: Homo sapiens, 72 hr treatment. Put shortly:
as §1

T1 sequence (Q99558 whole entry): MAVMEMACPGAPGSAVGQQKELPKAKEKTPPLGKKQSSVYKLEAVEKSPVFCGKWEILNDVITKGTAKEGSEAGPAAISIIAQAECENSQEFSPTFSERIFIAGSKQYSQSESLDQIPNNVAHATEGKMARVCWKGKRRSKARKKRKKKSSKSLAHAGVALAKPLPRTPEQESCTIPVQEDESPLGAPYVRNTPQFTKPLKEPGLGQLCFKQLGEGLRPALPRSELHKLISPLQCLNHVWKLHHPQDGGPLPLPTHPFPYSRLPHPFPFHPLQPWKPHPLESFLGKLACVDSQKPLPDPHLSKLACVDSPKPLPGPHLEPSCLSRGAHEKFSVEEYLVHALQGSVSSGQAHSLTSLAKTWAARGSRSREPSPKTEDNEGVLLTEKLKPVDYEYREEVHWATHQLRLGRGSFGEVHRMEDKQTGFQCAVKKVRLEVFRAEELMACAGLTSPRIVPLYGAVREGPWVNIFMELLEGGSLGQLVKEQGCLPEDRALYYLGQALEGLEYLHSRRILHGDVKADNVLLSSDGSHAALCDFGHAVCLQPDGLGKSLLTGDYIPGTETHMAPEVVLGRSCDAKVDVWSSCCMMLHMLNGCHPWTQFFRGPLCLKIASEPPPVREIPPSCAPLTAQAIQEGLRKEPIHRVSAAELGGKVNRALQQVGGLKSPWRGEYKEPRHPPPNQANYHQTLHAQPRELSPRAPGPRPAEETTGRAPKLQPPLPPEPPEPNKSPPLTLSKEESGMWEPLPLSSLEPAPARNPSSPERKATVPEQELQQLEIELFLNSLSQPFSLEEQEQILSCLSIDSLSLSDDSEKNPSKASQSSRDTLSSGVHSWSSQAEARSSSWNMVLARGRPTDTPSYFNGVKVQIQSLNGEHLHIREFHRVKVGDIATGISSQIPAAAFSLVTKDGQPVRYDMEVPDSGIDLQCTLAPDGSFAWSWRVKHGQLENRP

A word on the EC50: it is the midpoint of the concentration-response curve. Lower therefore signals higher potency in that assay. Usually IC50 stands for the point on the concentration scale where inhibition reaches its midpoint. As for `CC(C)(O)CCc1cn(-c2nc(N)ncc2F)c2cc(C#CC3(O)CCCC3)ncc12` [Compound 34], the EC50 amounted to 3390 nM in the experiment with LP-1 cells, 1710 nM in the experiment on JJN-3 cells and 2240 nM in the experiment with L-363 cells. Besides, the half-maximal inhibitory concentration (IC50) in experiment [1] was 13 nM; in experiment [2], 11 nM; in experiment [3], 199 nM.
